From patent US7662856B2, “Compositions having antimycrobial activity including a hydroxamate or a hydroxamate and a hydroxlyamine” (The University of Houston System, priority 2003, dated 2010)
In brackets after ≈: the same amount, converted by molar mass. Structures can show the parent of a compound that is named as a salt. Where two headings read alike, the source gives them in different places.

How the values were obtained:
[1] = tested on: E. Coli; test: microbe, parasite or virus in culture; assay type: cell-based
[2] = tested on: S. aureus; test: microbe, parasite or virus in culture; assay type: cell-based
[3] = molecular target: alanine racemase enzyme from P. aeruginosa (Pseudomonas aeruginosa, UniProt Q9HTQ2, A178S/N326M/S138R/S262R); test: biochemical; conditions: for inhibition at 2500 µM: read-out: In % (percent inhibition of alanine racemase)
[4] = molecular target: T1, alanine racemase enzyme from S. aureus (Staphylococcus aureus, UniProt P63479); test: biochemical; conditions: for inhibition at 2500 µM: read-out: In % (percent inhibition of alanine racemase)
T1 sequence (P63479 1-382): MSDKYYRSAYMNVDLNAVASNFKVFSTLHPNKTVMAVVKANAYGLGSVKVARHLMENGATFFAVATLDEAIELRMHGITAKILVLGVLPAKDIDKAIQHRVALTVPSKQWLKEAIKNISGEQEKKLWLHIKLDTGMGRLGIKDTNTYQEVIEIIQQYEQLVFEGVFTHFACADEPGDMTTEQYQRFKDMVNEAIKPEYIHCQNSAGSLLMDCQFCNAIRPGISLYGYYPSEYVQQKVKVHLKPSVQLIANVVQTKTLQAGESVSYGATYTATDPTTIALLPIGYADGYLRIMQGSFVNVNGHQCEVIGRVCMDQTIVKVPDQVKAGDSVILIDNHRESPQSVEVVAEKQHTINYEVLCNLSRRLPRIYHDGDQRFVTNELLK

[5] = molecular target: alanine racemase enzyme from E. Coli (Escherichia coli, UniProt P0A6B4); test: biochemical; conditions: for inhibition at 2500 µM: read-out: In % (percent inhibition of alanine racemase)
[6] = molecular target: alanine racemase enzyme from M. tuberculosis (Mycobacterium tuberculosis, UniProt P9WQA9, DEL103-104); assay type: biochemical
[7] = tested on: M. tuberculosis; assay type: cell-based
[8] = tested on: M. tuberculosis; test: microbe, parasite or virus in culture; assay type: cell-based
[9] = Escherichia coli, read-out: MIC
[10] = Staphylococcus aureus, read-out: MIC
[11] = P. aeruginosa ALR, % Inhibition at 2.5 mM
[12] = P. aeruginosa ALR, read-out: Ki
[13] = S. aureus ALR, % Inhibition at 2.5 mM
[14] = E. Coli ALR, % Inhibition at 2.5 mM
[15] = TB Assay of Hydroxamate Candidates, DMSO control 7, Water control 8
[16] = Mycobacterium tuberculosis, MGIT Assay, read-out: MIC

Sequence of alanine racemase enzyme from E. Coli (P0A6B4 whole entry): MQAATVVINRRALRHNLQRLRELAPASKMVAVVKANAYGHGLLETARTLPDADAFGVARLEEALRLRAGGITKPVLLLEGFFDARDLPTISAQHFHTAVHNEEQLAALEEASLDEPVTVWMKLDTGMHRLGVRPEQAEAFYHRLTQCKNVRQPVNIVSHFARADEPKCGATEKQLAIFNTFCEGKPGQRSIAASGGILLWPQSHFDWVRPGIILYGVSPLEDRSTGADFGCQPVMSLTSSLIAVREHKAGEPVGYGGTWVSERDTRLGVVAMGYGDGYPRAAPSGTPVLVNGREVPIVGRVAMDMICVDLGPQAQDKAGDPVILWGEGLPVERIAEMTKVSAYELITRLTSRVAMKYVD
Sequence of alanine racemase enzyme from P. aeruginosa (Q9HTQ2 whole entry S138R/A178S/S262R/N326M): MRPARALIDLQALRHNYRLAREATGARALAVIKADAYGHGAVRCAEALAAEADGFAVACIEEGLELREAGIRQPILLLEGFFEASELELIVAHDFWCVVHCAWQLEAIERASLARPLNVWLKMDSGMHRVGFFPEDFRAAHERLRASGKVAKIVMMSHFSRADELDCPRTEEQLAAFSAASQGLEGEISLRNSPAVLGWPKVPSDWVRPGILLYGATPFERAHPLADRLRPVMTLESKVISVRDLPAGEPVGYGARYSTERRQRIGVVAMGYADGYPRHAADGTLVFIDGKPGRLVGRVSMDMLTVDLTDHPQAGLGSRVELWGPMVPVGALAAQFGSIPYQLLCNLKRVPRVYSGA
Sequence of alanine racemase enzyme from M. tuberculosis (P9WQA9 whole entry, looked up, stated change not applied): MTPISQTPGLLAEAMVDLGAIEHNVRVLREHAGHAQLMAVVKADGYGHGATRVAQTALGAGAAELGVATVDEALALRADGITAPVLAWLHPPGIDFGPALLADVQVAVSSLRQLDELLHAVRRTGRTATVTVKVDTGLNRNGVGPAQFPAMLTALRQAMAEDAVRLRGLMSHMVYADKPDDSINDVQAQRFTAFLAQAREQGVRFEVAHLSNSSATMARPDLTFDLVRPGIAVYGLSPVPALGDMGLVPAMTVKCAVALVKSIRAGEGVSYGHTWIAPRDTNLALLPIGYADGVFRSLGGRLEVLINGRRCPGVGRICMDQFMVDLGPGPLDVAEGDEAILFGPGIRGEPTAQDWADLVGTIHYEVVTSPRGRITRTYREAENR

| Compound | Ki [3, 12] | inhibition at 2500 µM [4, 13] | Ki ([4]; S. aureus ALR, read-out: Ki) | inhibition at 2500 µM [5, 14] | Ki ([5]; E. Coli ALR, read-out: Ki) | In % (percent inhibition of alanine racemase) [6] | MIC [1] | MIC [2] | In % (percent inhibition of alanine racemase) [3, 11] | In % (percent inhibition of alanine racemase) [4, 13] | In % (percent inhibition of alanine racemase) [5, 14] | % In in TB-ALR-assay [6] | other results |
| --- | --- | --- | --- | --- | --- | --- | --- | --- | --- | --- | --- | --- | --- |
| CC(N)C(=O)NO (centres unmarked) [HzNGH(~Ha)G(O)NHOH] | 656 µM | 57 ± 4% | 810 µM | 58 ± 2% | 756 µM | 48 ± 9% | – | – | – | – | – | – | MIC [1, 9]: > 5 mM; MIC [2, 10]: > 5 mM; inhibition at 2500 µM [3, 11]: 66 ± 3% |
| NCC(=O)NO [H2NOH2G(O)NHOH] | 33 µM | – | 34 µM | – | 75 µM | 100 ± 2% | >5 mM | >5 mM | 90 ± 2% | 92 ± 3% | 90 ± 4% | – | – |
| NCC(=O)NO [TFA•H2NCH2G(O)NHOH, glycine hydroxamic trifluoracetic acid] | 20 µM | 99 ± 3% | 23 µM | 94 ± 4% | 78 µM | 104 ± 4% | >5 mM | >5 mM | 112 ± 7% | – | – | – | – |
| NC(CO)C(=O)NO (centres unmarked) [H2NCH(CH2OH)C(O)NHOH] | 5100 µM | 19 ± 8% | 7200 µM | 0% | – | 33 ± 8% | – | – | – | – | – | 33% | MIC [1, 9]: > 5 mM; Days of Detection [7, 15]: 21.5 days; MIC [2, 10]: > 5 mM; inhibition at 2500 µM [3, 11]: 28 ± 5%; MIC [8, 16]: 100 µg/mL (≈ 833 µM) |
| NCC(=O)NO [H2NCH2C(O)NHOH, glycine hydroxamic acid] | 65 µM | – | 90 µM | – | 39 µM | 100 ± 1% | >5 mM | >0.5 mM | 94 ± 1% | 91 ± 3% | 90 ± 5% | 100% | Days of Detection [7, 15]: >40 days; MIC [8, 16]: 50 µg/mL (≈ 555 µM) |
| Cl.NCC(=O)NO [HCl•H2NCH2C(O)NHOH, Glycine Hydroxamic Acid Hydrochloride] | – | – | – | – | – | 105 ± 6% | – | >5 mM | – | – | – | 100% | MIC ([1]; Escherichia coli): > 5 mM; Days of Detection [7]: 16.5 days; Ki ([3]; Ki): 201 µM; inhibition at 2500 µM [3]: 114 ± 14%; MIC ([8]; Mycobacterium tuberculosis): 200 µg/mL; Ki ([4]; Ki): 217 µM; inhibition at 2500 µM [4]: 95 ± 1%; Ki ([5]; Ki): 268 µM; inhibition at 2500 µM [5]: 88 ± 4% |
| C[C@@H](N)C(=O)NO [Hcl•H2NCH(CH3)C(O)NHOH, D-Alanine Hydroxamic Acid Hydrochloride] | – | – | – | – | – | – | – | – | – | – | – | – | MIC ([1]; Escherichia coli): > 5 mM; MIC ([2]; Staphylococcus aureus): > 5 mM; Ki ([3]; Ki): 1010 µM; inhibition at 2500 µM [3]: 29 ± 6%; Ki ([4]; Ki): 2680 µM; inhibition at 2500 µM [4]: 33 ± 6%; Ki ([5]; Ki): 5200 µM; inhibition at 2500 µM [5]: 35 ± 7% |
| N,O-Methylglycine Hydroxamic Acid Trifluoroacetic Acid [TFA•H2NCH2C(O)N(CH3)OCH3] | 633 µM | – | 590 µM | – | 875 µM | 66 ± 4% | >5 mM | >5 mM | 68 ± 5% | 66 ± 3% | 49 ± 2% | 66% | Days of Detection [7]: 9 days; MIC [8]: >200 µg/mL; Ki [6]: 644 µM |
